Source: patent US20250230147A1, “LACTAMS AS CBL-B INHIBITORS” (Genentech, Inc., priority 2021, published 2025)

Experiments:
[1] = target: Cbl-b (Homo sapiens (Human), UniProt Q13191); experiment: Cbl-b LCK Ub TR-FRET assay (Cbl-b Lck HTRF); type: biochemical
Summary of the method: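 TR-FRET (340 nm excitation, 615/665 nm emission) read after adding HA-ubiquitin–UBE2D2 thioester, anti-HA-D2 and streptavidin-Eu. Beforehand, compounds incubated 60 min with biotinylated Cbl-b, then 90 min with His-LCK and ATP (1 mM in 2× mix); IC50 from 10 concentrations, DMSO high and no-LCK low controls.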

[2] = target: c-Cbl (Homo sapiens (Human), UniProt P22681); experiment: C-Cbl LCK Ub TR-FRET assay (c-cbl Lck HTRF); type: biochemical; details: for (fold-selectivity): C-cbl Lck HTRF IC50 relative to Cbl-b Lck HTRF IC50
Summary of the method: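 Signal is read once the detection mix has stood 20 min at ambient temperature. Curves are anchored by DMSO as maximum and by omission of LCK as minimum.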

Chain of c-Cbl (P22681 47-435): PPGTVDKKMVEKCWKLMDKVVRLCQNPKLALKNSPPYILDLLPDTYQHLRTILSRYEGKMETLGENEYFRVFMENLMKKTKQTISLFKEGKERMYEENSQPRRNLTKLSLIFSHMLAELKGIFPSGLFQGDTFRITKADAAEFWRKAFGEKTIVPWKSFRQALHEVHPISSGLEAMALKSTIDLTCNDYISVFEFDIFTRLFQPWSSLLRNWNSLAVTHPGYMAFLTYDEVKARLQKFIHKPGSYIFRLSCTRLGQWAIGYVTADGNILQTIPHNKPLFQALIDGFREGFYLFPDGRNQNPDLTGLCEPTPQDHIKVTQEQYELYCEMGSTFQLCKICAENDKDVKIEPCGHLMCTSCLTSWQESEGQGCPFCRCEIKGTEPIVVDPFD
Chain of Cbl-b (Q13191 40-426): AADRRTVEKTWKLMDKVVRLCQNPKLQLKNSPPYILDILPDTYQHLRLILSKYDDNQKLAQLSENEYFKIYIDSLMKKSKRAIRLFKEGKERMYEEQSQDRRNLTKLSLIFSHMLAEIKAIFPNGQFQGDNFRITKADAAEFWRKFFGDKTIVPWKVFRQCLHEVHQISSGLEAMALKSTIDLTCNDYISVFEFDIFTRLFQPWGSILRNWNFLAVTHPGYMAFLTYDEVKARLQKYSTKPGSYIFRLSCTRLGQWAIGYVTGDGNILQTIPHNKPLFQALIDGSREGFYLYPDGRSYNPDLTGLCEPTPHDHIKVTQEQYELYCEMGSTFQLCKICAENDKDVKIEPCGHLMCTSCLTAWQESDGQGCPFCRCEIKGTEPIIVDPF

| SMILES | IC50 [1] | IC50 [2] | (fold-selectivity) [2] | fold of selectivity ([1]; Cbl-b over c-Cbl, Lck HTRF IC50) |
| --- | --- | --- | --- | --- |
| CC(=O)N1CCN(Cc2cc3c(c(C(F)(F)F)c2)CN(c2cccc(C4([C@@H](F)c5nncn5C)COC4)c2)C3=O)[C@@H](C(C)C)C1 [Compound 193, 6-(((S)-4-acetyl-2-isopropylpiperazin-1-yl)methyl)-2-(3-(3-((R)-fluoro(4-methyl-4H-1,2,4-triazol-3-yl)methyl)oxetan-3-yl)phenyl)-4-(trifluoromethyl)isoindolin-1-one] | 72 nM | 190 nM | 2.6x |  |
| CC(=O)N1CCN(Cc2cc3c(c(C(F)(F)F)c2)CN(c2cccc(C4([C@H](F)c5nncn5C)COC4)c2)C3=O)[C@@H](C(C)C)C1 [Compound 194, 6-(((S)-4-acetyl-2-isopropylpiperazin-1-yl)methyl)-2-(3-(3-((S)-fluoro(4-methyl-4H-1,2,4-triazol-3-yl)methyl)oxetan-3-yl)phenyl)-4-(trifluoromethyl)isoindolin-1-one] | 270 nM | 810 nM | 3.0x |  |
| CC(C)[C@H]1CN(S(C)(=O)=O)CCN1Cc1cc2c(c(C(F)(F)F)c1)CN(c1cccc(C3([C@@H](F)c4nncn4C)COC3)c1)C2=O [Compound 195, 2-(3-(3-((R)-fluoro(4-methyl-4H-1,2,4-triazol-3-yl)methyl)oxetan-3-yl)phenyl)-6-(((S)-2-isopropyl-4-(methylsulfonyl)piperazin-1-yl)methyl)-4-(trifluoromethyl)isoindolin-1-one] | 53 nM | 110 nM | 2.0x |  |
| CC(C)[C@H]1CN(S(C)(=O)=O)CCN1Cc1cc2c(c(C(F)(F)F)c1)CN(c1cccc(C3([C@H](F)c4nncn4C)COC3)c1)C2=O [Compound 196, 2-(3-(3-((S)-fluoro(4-methyl-4H-1,2,4-triazol-3-yl)methyl)oxetan-3-yl)phenyl)-6-(((S)-2-isopropyl-4-(methylsulfonyl)piperazin-1-yl)methyl)-4-(trifluoromethyl)isoindolin-1-one] | 240 nM | 660 nM | 2.8x |  |
| CC(C)[C@H]1CN(CCF)CCN1Cc1cc2c(c(C(F)(F)F)c1)CN(c1cccc(C3([C@@H](F)c4nncn4C)COC3)c1)C2=O [Compound 197, 2-(3-(3-((R)-fluoro(4-methyl-4H-1,2,4-triazol-3-yl)methyl)oxetan-3-yl)phenyl)-6-(((S)-4-(2-fluoroethyl)-2-isopropylpiperazin-1-yl)methyl)-4-(trifluoromethyl)isoindolin-1-one] | 8 nM | 13 nM | 1.6x |  |
| CC(C)[C@H]1CN(CCF)CCN1Cc1cc2c(c(C(F)(F)F)c1)CN(c1cccc(C3([C@H](F)c4nncn4C)COC3)c1)C2=O [Compound 198, 2-(3-(3-((S)-fluoro(4-methyl-4H-1,2,4-triazol-3-yl)methyl)oxetan-3-yl)phenyl)-6-(((S)-4-(2-fluoroethyl)-2-isopropylpiperazin-1-yl)methyl)-4-(trifluoromethyl)isoindolin-1-one] | 14 nM | 21 nM | 1.5x |  |
| CC(C)[C@H]1CN(C2COC2)CCN1Cc1cc2c(c(C(F)(F)F)c1)CN(c1cccc(C3([C@H](F)c4nncn4C)COC3)c1)C2=O [Compound 199, 2-(3-(3-((S)-fluoro(4-methyl-4H-1,2,4-triazol-3-yl)methyl)oxetan-3-yl)phenyl)-6-(((S)-2-isopropyl-4-(oxetan-3-yl)piperazin-1-yl)methyl)-4-(trifluoromethyl)isoindolin-1-one] | 19 nM | 56 nM | 2.9x |  |
| CC(C)[C@H]1CN(C2COC2)CCN1Cc1cc2c(c(C(F)(F)F)c1)CN(c1cccc(C3([C@@H](F)c4nncn4C)COC3)c1)C2=O [Compound 200, 2-(3-(3-((R)-fluoro(4-methyl-4H-1,2,4-triazol-3-yl)methyl)oxetan-3-yl)phenyl)-6-(((S)-2-isopropyl-4-(oxetan-3-yl)piperazin-1-yl)methyl)-4-(trifluoromethyl)isoindolin-1-one] | 27 nM | 39 nM | 1.5x |  |
| CC(C)[C@H]1CN(CC(F)(F)F)CCN1Cc1cc2c(c(C(F)(F)F)c1)CN(c1cccc(C3([C@H](F)c4nncn4C)COC3)c1)C2=O [Compound 201, 2-(3-(3-((S)-fluoro(4-methyl-4H-1,2,4-triazol-3-yl)methyl)oxetan-3-yl)phenyl)-6-(((S)-2-isopropyl-4-(2,2,2-trifluoroethyl)piperazin-1-yl)methyl)-4-(trifluoromethyl)isoindolin-1-one] | 220 nM | 3000 nM | 13 x | 13.6x |
| CC(C)[C@H]1CN(CC(F)(F)F)CCN1Cc1cc2c(c(C(F)(F)F)c1)CN(c1cccc(C3([C@@H](F)c4nncn4C)COC3)c1)C2=O [Compound 202, 2-(3-(3-((R)-fluoro(4-methyl-4H-1,2,4-triazol-3-yl)methyl)oxetan-3-yl)phenyl)-6-(((S)-2-isopropyl-4-(2,2,2-trifluoroethyl)piperazin-1-yl)methyl)-4-(trifluoromethyl)isoindolin-1-one] | 150 nM | 400 nM | 2.6x |  |
| CCNCc1cc2c(c(C(F)(F)F)c1)CN(c1cccc(C3([C@@H](F)c4nncn4C)COC3)c1)C2=O [Compound 213, (R)-6-((ethylamino)methyl)-2-(3-(3-(fluoro(4-methyl-4H-1,2,4-triazol-3-yl)methyl)oxetan-3-yl)phenyl)-4-(trifluoromethyl)isoindolin-1-one] | 38 nM | 61 nM | 1.6x |  |
| C[C@H]1CN(C)CCN1Cc1cc2c(c(C(F)(F)F)c1)CN(c1cccc(C3(Cc4nncn4C)CC(F)(F)C3)c1)C2=O [Compound 214, (S)-2-(3-(3,3-difluoro-1-((4-methyl-4H-1,2,4-triazol-3-yl)methyl)cyclobutyl)phenyl)-6-((2,4-dimethylpiperazin-1-yl)methyl)-4-(trifluoromethyl)isoindolin-1-one] | 42 nM | 41 nM | 0.96x |  |

Next, values leading:

| IC50 [1] | IC50 [2] | (fold-selectivity) [2] | fold of selectivity ([1]; Cbl-b over c-Cbl, Lck HTRF IC50) | SMILES |
| --- | --- | --- | --- | --- |
| 200 nM | 400 nM | 2.0x |  | Cn1cnnc1[C@H](F)C1(c2cccc(N3Cc4c(Br)cccc4C3=O)c2)COC1 [Compound 203, (R)-4-bromo-2-(3-(3-(fluoro(4-methyl-4H-1,2,4-triazol-3-yl)methyl)oxetan-3-yl)phenyl)isoindolin-1-one] |
| 210 nM | 660 nM | 3.1x |  | Cn1cnnc1[C@H](F)C1(c2cccc(N3Cc4c(Cl)cccc4C3=O)c2)COC1 [Compound 204, (R)-4-chloro-2-(3-(3-(fluoro(4-methyl-4H-1,2,4-triazol-3-yl)methyl)oxetan-3-yl)phenyl)isoindolin-1-one] |
| 290 nM | 770 nM | 2.7x |  | Cn1cnnc1[C@H](F)C1(c2cccc(N3Cc4c(I)cccc4C3=O)c2)COC1 [Compound 205, (R)-2-(3-(3-(fluoro(4-methyl-4H-1,2,4-triazol-3-yl)methyl)oxetan-3-yl)phenyl)-4-iodoisoindolin-1-one] |
| 1500 nM | 2300 nM | 1.5x |  | COc1cccc2c1CN(c1cccc(C3([C@@H](F)c4nncn4C)COC3)c1)C2=O [Compound 206, (R)-2-(3-(3-(fluoro(4-methyl-4H-1,2,4-triazol-3-yl)methyl)oxetan-3-yl)phenyl)-4-methoxyisoindolin-1-one] |
| 4500 nM | 13000 nM | 2.8x |  | CC(C)Oc1cccc2c1CN(c1cccc(C3([C@@H](F)c4nncn4C)COC3)c1)C2=O [Compound 207, (R)-2-(3-(3-(fluoro(4-methyl-4H-1,2,4-triazol-3-yl)methyl)oxetan-3-yl)phenyl)-4-isopropoxyisoindolin-1-one] |
| 1400 nM | 2100 nM | 1.5x |  | Cc1cccc2c1CN(c1cccc(C3([C@@H](F)c4nncn4C)COC3)c1)C2=O [Compound 208, (R)-2-(3-(3-(fluoro(4-methyl-4H-1,2,4-triazol-3-yl)methyl)oxetan-3-yl)phenyl)-4-methylisoindolin-1-one] |
| 1100 nM | 1900 nM | 1.7x |  | CCc1cccc2c1CN(c1cccc(C3([C@@H](F)c4nncn4C)COC3)c1)C2=O [Compound 209] |
| > 20000 nM | > 20000 nM | 1.0x |  | Cn1cnnc1[C@H](F)C1(c2cccc(N3Cc4c(cccc4-c4ccccc4)C3=O)c2)COC1 [Compound 210, (R)-2-(3-(3-(fluoro(4-methyl-4H-1,2,4-triazol-3-yl)methyl)oxetan-3-yl)phenyl)-4-phenylisoindolin-1-one] |
| 940 nM | 1600 nM | 1.7x |  | C#Cc1cccc2c1CN(c1cccc(C3([C@@H](F)c4nncn4C)COC3)c1)C2=O [Compound 211, (R)-4-ethynyl-2-(3-(3-(fluoro(4-methyl-4H-1,2,4-triazol-3-yl)methyl)oxetan-3-yl)phenyl)isoindolin-1-one] |
| 75 nM | 130 nM | 1.7 x |  | CNCc1cc2c(c(C(F)(F)F)c1)CN(c1cccc(C3([C@@H](F)c4nncn4C)COC3)c1)C2=O [Compound 212, (R)-2-(3-(3-(fluoro(4-methyl-4H-1,2,4-triazol-3-yl)methyl)oxetan-3-yl)phenyl)-6-((methylamino)methyl)-4-(trifluoromethyl)isoindolin-1-one] |
